Test results published in patent US4120953A, “Novel 2,2', 2"-[s-phenenyltris(sulfonylimino)tris]-[2-deoxy-α-D-glucopyranose] , dodecakis (H-sulfate) compounds and their salts” (American Cyanamid Company, priority 1977, dated 1978).
Counter-ions that a name gives are not always drawn.

Experiments:
[1] = test system: shunt pathway activated by cobra venom factor; assay: Test, Code 036 (C-Shunt inhibitor); format: cell-based; conditions: serial two-fold dilution assay; lysis of fragile human erythrocytes in autologous serum
[2] = biological target: activated human C1 (Homo sapiens, UniProt P09871); assay: Test, Code 026 (C1 inhibitor); format: biochemical; conditions: serial two-fold dilution assay; higher well numbers indicate higher activity; protection of human C2 from C1 and C4
Method: (§1) This test measures the ability of activated human C1 to destroy fluid phase human C2 in the presence of C4 and appropriate dilutions of the test compound. An active inhibitor protects C2 from C1 and C4; (ii) Test, Code 035 (C3-C9 inhibitor) - This test determines the ability of the late components of human complement (C3-C9) to lyse EAC 142 in the presence of appropriate dilutions of the test compound. […] The lesion is measured in terms of diameter, edema and hemorrhage and the extent to which a combined index of these is inhibited by prior intraperitoneal injection of the test compound at […] is then reported, unless otherwise stated; (v) Forssman Shock Test -- Lethal shock is produced in guinea pigs by an i.v. injection of anti-Forssman antiserum and the harmonic mean death time of treated guinea pigs is compared with that of simultaneous controls; (vi) Complement Level Reduction Test -- In this test, the above dosed guinea pigs, or others, are bled for serum and the complement level is determined in undiluted serum by the capillary tube method of U.S. Pat. No. 3,876,376 and compared to undosed control guinea pigs; and (vii) Cap 50 Test -- Here, appropriate amounts of the test compound are added to a pool of guinea pig serum in vitro, after which the undiluted serum capillary tube assay referred to above is run. […]

[3] = test system: late components of human complement (C3-C9); assay: Test, Code 035 (C3-C9 inhibitor); format: biochemical; design: key: N = negative; conditions: serial two-fold dilution assay; protection of EAC 142 from lysis by human C3-C9
Method: as §1

| SMILES | In Vitro Activity Shunt Inhibition 036 Wells [1] | In Vitro Activity C1 026 Wells [2] | In Vitro Activity C-Late 035 Wells [3] |
| --- | --- | --- | --- |
| O=S(=O)(O)OC[C@H]1O[C@H](OS(=O)(=O)O)[C@H](NS(=O)(=O)c2cc(S(=O)(=O)N[C@H]3[C@@H](OS(=O)(=O)O)O[C@H](COS(=O)(=O)O)[C@@H](OS(=O)(=O)O)[C@@H]3OS(=O)(=O)O)cc(S(=O)(=O)N[C@H]3[C@@H](OS(=O)(=O)O)O[C@H](COS(=O)(=O)O)[C@@H](OS(=O)(=O)O)[C@@H]3OS(=O)(=O)O)c2)[C@@H](OS(=O)(=O)O)[C@@H]1OS(=O)(=O)O [2,2',2"-[ s-Phenenyltris(sulfonylimino)]-tris[2-deoxy-α-D-gl] [2,2',2"-[s-Phenenyltris(sulfonylimino)]tris[2-deoxy-α-D-glucopyranose], dodecakis (H-sulfate) dodecasalt with trimethylamine] | +2 Wells |  |  |
| O=S(=O)(O)OC[C@H]1O[C@H](OS(=O)(=O)O)[C@H](NS(=O)(=O)c2cc(S(=O)(=O)N[C@H]3[C@@H](OS(=O)(=O)O)O[C@H](COS(=O)(=O)O)[C@@H](OS(=O)(=O)O)[C@@H]3OS(=O)(=O)O)cc(S(=O)(=O)N[C@H]3[C@@H](OS(=O)(=O)O)O[C@H](COS(=O)(=O)O)[C@@H](OS(=O)(=O)O)[C@@H]3OS(=O)(=O)O)c2)[C@@H](OS(=O)(=O)O)[C@@H]1OS(=O)(=O)O [2,2',2"-[s-Phenenyltris(sulfonylimino)]-tris[2-deoxy-α-D-glu] [2,2',2"-[s-Phenenyltris(sulfonylimino)]tris[2-deoxy-α-D-glucopyranose], dodecakis (H-sulfate) dodecasodium salt] | +1 Wells |  |  |
| O=S(=O)(O)OC[C@H]1O[C@H](OS(=O)(=O)O)[C@H](NS(=O)(=O)c2cc(S(=O)(=O)N[C@H]3[C@@H](OS(=O)(=O)O)O[C@H](COS(=O)(=O)O)[C@@H](OS(=O)(=O)O)[C@@H]3OS(=O)(=O)O)cc(S(=O)(=O)N[C@H]3[C@@H](OS(=O)(=O)O)O[C@H](COS(=O)(=O)O)[C@@H](OS(=O)(=O)O)[C@@H]3OS(=O)(=O)O)c2)[C@@H](OS(=O)(=O)O)[C@@H]1OS(=O)(=O)O [2,2',2"-[s-Phenenyltris(sulfonylimino)]tris[2-deoxy-α-D-glucopyranose], dodecakis (H-sulfate) dodecasalt with trimethylamine] |  | +7 Wells | N |
